Assay results published in US10697970B2, “S100A9 levels for predicting lenalidomide and erythropoietin responsiveness” (H. LEE MOFFITT CANCER CENTER AND RESEARCH INSTITUTE, INC., priority 2015, dated 2020).

Experiments:
HepG2 cells = test: Epo elaboration by HepG2 cells (ELISA); format: cell-based, human; conditions: for suppression of Epo production by the inflammatory protein alone: HepG2, vehicle control arm of lenalidomide experiment, S100A9 1 μg/ml or TNFα 10 ng/ml
Experimental: HepG2 cells, acquired from American Type Culture Collection (ATCC, Manassas, Va.), were grown in EMEM supplemented with 10% FBS and 1% penicillin/streptomycin solution. Cells were maintained at 37° C. under 5% CO2.
Quantitation of human S100A9/MRP14 in patient serum and supernatant of the HepG2 cell line was performed using CircuLex S100A9/MRP14 ELISA Kit (MBL, Nagano, Japan). Quantitative measurement of human TNFα and IL-1β from serum patients and supernatant of HepG2 cell line were performed using Human IL-1β ELISA Kit and Human TNFα ELISA Kit (Life Technologies, Carlsbad, Calif., USA). Quantitation of human Epo in patient serum and HepG2 cell line supernatant was performed using Human Erythropoietin ELISA kit (Stemcell Technologies, Vancouver, BC, Canada). All samples were performed in duplicate.

U2AF1-S34F mutant cells = test: Nuclear β-catenin confocal microscopy in U2AF1-S34F mutant TF-1 cells; format: cell-based; conditions: 24 hours treatment
[1] = tested on: SF3B1-K700E mutant-expressing BM cells; test: ASC staining flow cytometry (inflammasome formation) in SF3B1-K700E BM cells; format: cell-based, mouse; conditions: 24 hours treatment
Experimental: Staining was carried out as described ([…], et al. J Immunol. 2015 194(1):455-62). Briefly, cell pellets were resuspended in 1 mL of prewarmed BD Permeabilization Buffer III, and incubated on ice for 30 minutes. Cells were washed 2× with staining buffer. Following washing, cells were stained with rabbit-anti-ASC primary antibodies at a 1:1500 dilution and incubated for 90 minutes. Cells were washed, stained with secondary antibodies at a dilution of 1:1500, and incubated for 45 minutes. Cells were washed, and sample acquisitions were carried out using a BD LSR II flow cytometer and FACSDiva software.

[2] = tested on: SF3B1-K700E-expressing mutant BM cells; test: ROS detection in SF3B1-K700E BM cells; format: cell-based, mouse
Excerpt: (§1) ROS were detected using CM-H2DCFDA and Cell ROX® Deep Red Reagent according to manufacturer's protocol (Life Technologies).

[3] = tested on: SF3B1-K700E mutant-expressing BM cells; test: Nuclear β-catenin confocal microscopy in SF3B1-K700E BM cells; format: cell-based, mouse; conditions: 24 hours treatment
Experimental: (§2) MDS and normal donor BM-MNC and mouse BM cells were stained with 30×FAM-FLICA® Caspase-1 solution at a ratio of 1:30 for 2 hours at 37° C. Cells were washed and cytospins were generated using a 5 minutes centrifugation at 450 rpm. Slides were fixed at 37° C. for 10 minutes using BD Cytofix Fixation Buffer (BD Biosciences), and subsequently washed using PBS. Cells were permeabilized with 0.1% Triton X-100/2% BSA in PBS for 15 minutes at room temperature. After washing with PBS, cells were blocked using 2% BSA in PBS for 30 minutes at room temperature, and washed again. Cells were incubated with the appropriate primary antibody overnight (1:400 for NLRP3, 1:20 for β-catenin) at 4° C. The next day, cells were washed with PBS and incubated with the appropriate secondary antibodies (1:500) for 1 hour at room temperature. After washing, cells were covered with ProLong Gold Antifade Reagent with DAPI prior to the addition of a coverslip (Life Technologies). Co-localization of a-caspase-1 with NLRP3 inflammasome complexes was assessed using a Leica TCS SP5 AOBS Laser Scanning Confocal microscope (Leica Microsystems). Analysis of the inflammasome images was performed with Definiens Developer 2.0 (Definiens AG). The software was used to segment cells based on brightness and size thresholds, followed by a watershed segmentation algorithm. […]

U937 cells [4] = test: Pyroptosis / active caspase-1 flow cytometry in U937 cells treated with rhS100A9; format: cell-based
Experimental: Monocytic U937 cells were treated with the indicated concentrations of rhS100A9 for 24 hours, or with 5 μg/mL rhS100A9 for the indicated time points. Subsequently, cells were stained with 30×FAM-FLICA® Caspase-1 solution at a ratio of 1:30 for 2 hours at 37° C. Cells were washed, resuspended in 1× binding buffer, and stained with Annexin-V:PE at a dilution of 1:30 for 15 minutes at room temperature. 1× binding buffer was added to a final volume of 350 μL. Sample acquisitions were carried out using a BD FACSCalibur flow cytometer (BD Biosciences). Data were analyzed using FlowJo 9.7.5 software.

U937 cells [5] = test: a-caspase-1/NLRP3 confocal microscopy (inflammasome formation) in U937 cells; format: cell-based; conditions: U937, 5 μg/mL rhS100A9, 24 hours
normal BM-MNC [6] = test: qPCR of pyroptosis-associated genes in normal BM-MNC treated with rhS100A9; format: cell-based, human; conditions: normal BM-MNC (n=2), 1 μg/mL rhS100A9, 24 hours
Experimental: RNA was isolated from BM-MNC using the RNeasy Mini Kit (Qiagen). cDNA was produced using the iScript cDNA Synthesis Kit (Bio-Rad). Sequences for primers can be found in Table 1. GAPDH mRNA was used for transcript normalization. cDNA was amplified using the iQ SYBR Green Supermix and the CFX96 Real-Time PCR Detection System (Bio-Rad). PCR conditions were as follows: 10 minutes at 95° C., followed by 40 cycles of amplification (15 seconds at 95° C. and 1 minute at 60° C.). Relative gene expression was calculated using the […] method.

normal BM-MNC [7] = test: a-caspase-1/NLRP3 confocal microscopy in normal BM-MNC treated with rhS100A9; format: cell-based, human; conditions: 5 μg/mL rhS100A9, 24 hours
Experimental: (§3) MDS and normal donor BM-MNC and mouse BM cells were stained with 30×FAM-FLICA® Caspase-1 solution at a ratio of 1:30 for 2 hours at 37° C. Cells were washed and cytospins were generated using a 5 minutes centrifugation at 450 rpm. Slides were fixed at 37° C. for 10 minutes using BD Cytofix Fixation Buffer (BD Biosciences), and subsequently washed using PBS. Cells were permeabilized with 0.1% Triton X-100/2% BSA in PBS for 15 minutes at room temperature. After washing with PBS, cells were blocked using 2% BSA in PBS for 30 minutes at room temperature, and washed again. Cells were incubated with the appropriate primary antibody overnight (1:400 for NLRP3, 1:20 for β-catenin) at 4° C. The next day, cells were washed with PBS and incubated with the appropriate secondary antibodies (1:500) for 1 hour at room temperature. After washing, cells were covered with ProLong Gold Antifade Reagent with DAPI prior to the addition of a coverslip (Life Technologies). Co-localization of a-caspase-1 with NLRP3 inflammasome complexes was assessed using a Leica TCS SP5 AOBS Laser Scanning Confocal microscope (Leica Microsystems). Analysis of the inflammasome images was performed with Definiens Developer 2.0 (Definiens AG). The software was used to segment cells based on brightness and size thresholds, followed by a watershed segmentation algorithm. Intensity values and Pearson's correlation coefficient were extracted from the segmented cells. For β-catenin image analysis, confocal images were imported into Definiens Tissue Studio v3.0, 64 Dual in .tif format. Cells were separated from background using the RGB thresholds. Nuclei were identified by setting thresholds in the DAPI channel. Typical cells averaged 60 microns. The red intensity (β-catenin) in the nucleus and cytoplasm was established by setting thresholds to low, medium and high in the red channel on a scale of 0-255 in the red channel.

U937 cells [8] = test: Pore formation assay (ethidium bromide uptake) in U937 cells; format: cell-based; conditions: U937, 12.5 μg/mL EB, 5 μg/mL rhS100A9
[9] = tested on: BM cells isolated from WT mice; test: a-caspase-1/NLRP3 confocal microscopy in WT mouse BM cells treated with rhS100A9; format: cell-based; conditions: 5 μg/mL rhS100A9, 24 hours
Experimental: as §3

U937 cells [10] = test: ROS detection by flow cytometry in U937 cells; format: cell-based; conditions: U937, 5 μg/mL rhS100A9, 24 hours, compared to untreated cells
Excerpt: as §1

U937 cells [11] = test: Comet assay (DNA damage) in U937 cells; format: cell-based; conditions: U937, 5 μg/mL rhS100A9, 24 hours, compared to untreated cells
Experimental: Monocytic U937 cells were treated with 5 μg/mL rhS100A9 for 24 hr. DNA damage was measured by single cell gel electrophoresis using alkaline CometAssay® according to manufacturer's protocol (Trevigen Inc.).

U937 cells [12] = test: Nuclear β-catenin confocal microscopy in U937 cells; format: cell-based; conditions: U937, 5 μg/mL rhS100A9, 24 hours, compared to untreated cells
normal BM-MNC [13] = test: Nuclear β-catenin confocal microscopy in normal BM-MNC; format: cell-based, human
Experimental: as §2

MDS patients = conditions: MDS patients; cited from earlier work
[14] = U937, increasing concentrations of rhS100A9, 24 hours

IL-1β: inflammatory cytokine interleukin-1β purchased from Sigma-Aldrich
reduction in Epo elaboration (HepG2 cells; HepG2, 10 ng/ml, 24 h exposure): 60%

c1ccc2c(c1)[I+]c1ccccc1-2 [DPI]
β-catenin activation in mutant cells (U2AF1-S34F mutant cells): effectively reduced
inflammasome formation (ASC) [1]: significantly reduced
mean percentage of ROS+ cells and ROS MFI [2]: extinguished below the level of WT controls
percentage of cells with elevated levels of nuclear β-catenin [3]: significantly reduced

rhS100A9: Recombinant human S100A9, DAMP/alarmin protein, ligand for CD33 and TLR4, generated as previously described
activation of caspase-1 (U937 cells [4]; U937, 5 μg/mL rhS100A9 over time): time-dependent increase
a-caspase-1 MFI and percentage of a-caspase-1+ cells (U937 cells [4]; [14]): corresponding increase
fraction of pyroptotic cells (U937 cells [4]; [14]): concentration-dependent increase
levels of NLRP3 inflammasome complexes (U937 cells [5]): markedly increased
expression of pyroptosis-associated genes (normal BM-MNC [6]): significantly up-regulated
NLRP3 levels induced (normal BM-MNC [7]): 47.1 fold
a-caspase-1 levels induced (normal BM-MNC [7]): 2.5 fold
formation of NLRP3 inflammasomes (normal BM-MNC [7]): 2.9 fold
uptake of ethidium bromide (U937 cells [8]): rapid and substantial uptake
inflammasome complexes [9]: marked induction
MFI of NLRP3 ([9]; versus controls): significantly increased
MFI of a-caspase-1 ([9]; versus controls): significantly increased
increase in mean percentage of ROS-positive cells (U937 cells [10]): 2.9 fold
increase in DNA damage (U937 cells [11]): 4.1 fold
levels of nuclear (activated) β-catenin (U937 cells [12]): marked increases
levels of nuclear β-catenin (normal BM-MNC [13]; normal BM-MNC, 5 μg/mL rhS100A9, 24 hours, compared to controls): elevated levels
reduction in Epo elaboration (HepG2 cells; HepG2, 1 μg/ml, 24 h exposure): 95%
Epo elaboration (HepG2 cells; HepG2, 10 to 20 μg/ml, 24 h exposure): completely suppressed
suppression of Epo production by the inflammatory protein alone (HepG2 cells): 95%

erythropoietin: erythropoietin treatment for anemia in MDS
patients with MDS in whom treatment may improve anemia (MDS patients): 15-20%

CC(=O)N[C@@H](CS)C(=O)O [NAC, N-acetylcysteine]
S100A9-triggered nuclear translocation of β-catenin (normal BM-MNC [13]; normal BM-MNC treated with S100A9 plus anti-oxidant): abolished
β-catenin activation in mutant cells (U2AF1-S34F mutant cells): effectively reduced
inflammasome formation (ASC) [1]: significantly reduced
mean percentage of ROS+ cells and ROS MFI [2]: extinguished below the level of WT controls
percentage of cells with elevated levels of nuclear β-catenin [3]: significantly reduced

TNFα
reduction in Epo elaboration (HepG2 cells; HepG2, 10 ng/ml, 24 h exposure): 40%
suppression of Epo production by the inflammatory protein alone (HepG2 cells): 30%
